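1) Cells in 96-well plates. 2) Compound, 48 h, 5 concentrations. 3) Linear interpolation between surrounding doses. 4) Unreached endpoint = highest concentration. TGI: total growth inhibition.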
What was measured:
Test in all cases: NCI anticancer screen, dose series, 48 h
786-0 renal = test system: 786-0 renal
A549 NSCLC = test system: A549 NSCLC
ACHN renal = test system: ACHN renal
BT-549 breast = test system: BT-549 breast
CAKI-1 renal = test system: CAKI-1 renal
CCRF-CEM leukemia = test system: CCRF-CEM leukemia
COLO 205 colon = test system: COLO 205 colon
EKVX NSCLC = test system: EKVX NSCLC
HCT-116 colon = test system: HCT-116 colon
HCT-15 colon = test system: HCT-15 colon
HL-60(TB) leukemia = test system: HL-60(TB) leukemia
HOP-62 NSCLC = test system: HOP-62 NSCLC
HOP-92 NSCLC = test system: HOP-92 NSCLC
HS 578T breast = test system: HS 578T breast
HT29 colon = test system: HT29 colon
IGROV1 ovarian = test system: IGROV1 ovarian
K-562 leukemia = test system: K-562 leukemia
KM12 colon = test system: KM12 colon
M14 melanoma = test system: M14 melanoma
MALME-3M melanoma = test system: MALME-3M melanoma
MDA-MB-231 breast = test system: MDA-MB-231 breast
MDA-MB-435 = test system: MDA-MB-435
MDA-N = test system: MDA-N
MOLT-4 leukemia = test system: MOLT-4 leukemia
NCI-H226 lung = test system: NCI-H226 lung
NCI-H23 lung = test system: NCI-H23 lung
NCI-H522 lung = test system: NCI-H522 lung
NCI/ADR-RES ovarian = test system: NCI/ADR-RES ovarian
OVCAR-3 ovarian = test system: OVCAR-3 ovarian
OVCAR-4 ovarian = test system: OVCAR-4 ovarian
OVCAR-5 ovarian = test system: OVCAR-5 ovarian
OVCAR-8 ovarian = test system: OVCAR-8 ovarian
PC-3 prostate = test system: PC-3 prostate
RPMI-8226 leukemia = test system: RPMI-8226 leukemia
RXF 393 renal = test system: RXF 393 renal
SF-268 CNS = test system: SF-268 CNS
SF-295 CNS = test system: SF-295 CNS
SK-MEL-2 melanoma = test system: SK-MEL-2 melanoma
SK-MEL-28 melanoma = test system: SK-MEL-28 melanoma
SK-MEL-5 melanoma = test system: SK-MEL-5 melanoma
SK-OV-3 ovarian = test system: SK-OV-3 ovarian
SN12C renal = test system: SN12C renal
SNB-19 CNS = test system: SNB-19 CNS
SNB-75 CNS = test system: SNB-75 CNS
SW-620 colon = test system: SW-620 colon
TK-10 renal = test system: TK-10 renal
U251 CNS = test system: U251 CNS
UACC-257 melanoma = test system: UACC-257 melanoma
UACC-62 melanoma = test system: UACC-62 melanoma
UO-31 renal = test system: UO-31 renal
A498 renal = test system: A498 renal
DU-145 prostate = test system: DU-145 prostate
LOX IMVI melanoma = test system: LOX IMVI melanoma
MCF7 breast = test system: MCF7 breast
NCI-H460 lung = test system: NCI-H460 lung
T-47D breast = test system: T-47D breast
HCC-2998 colon = test system: HCC-2998 colon
SF-539 CNS = test system: SF-539 CNS

Oc1ccc2ccccc2c1N=Nc1cc(Cl)ccc1Cl
TGI (786-0 renal): 17 µM
TGI (A549 NSCLC): > 50 µM
TGI (ACHN renal): 24.7 µM
TGI (BT-549 breast): > 50 µM
TGI (CAKI-1 renal): > 50 µM
TGI (CCRF-CEM leukemia): > 50 µM
TGI (COLO 205 colon): > 50 µM
TGI (EKVX NSCLC): 20.6 µM
TGI (HCT-116 colon): 48.1 µM
TGI (HCT-15 colon): > 50 µM
TGI (HL-60(TB) leukemia): > 50 µM
TGI (HOP-62 NSCLC): 20.8 µM
TGI (HOP-92 NSCLC): > 50 µM
TGI (HS 578T breast): 21.4 µM
TGI (HT29 colon): > 50 µM
TGI (IGROV1 ovarian): 18.1 µM
TGI (K-562 leukemia): > 50 µM
TGI (KM12 colon): > 50 µM
TGI (M14 melanoma): > 50 µM
TGI (MALME-3M melanoma): > 50 µM
TGI (MDA-MB-231 breast): 27.9 µM
TGI (MDA-MB-435): > 50 µM
TGI (MDA-N): > 50 µM
TGI (MOLT-4 leukemia): > 50 µM
TGI (NCI-H226 lung): > 50 µM
TGI (NCI-H23 lung): > 50 µM
TGI (NCI-H522 lung): > 50 µM
TGI (NCI/ADR-RES ovarian): > 50 µM
TGI (OVCAR-3 ovarian): > 50 µM
TGI (OVCAR-4 ovarian): 28.8 µM
TGI (OVCAR-5 ovarian): > 50 µM
TGI (OVCAR-8 ovarian): 30.2 µM
TGI (PC-3 prostate): > 50 µM
TGI (RPMI-8226 leukemia): > 50 µM
TGI (RXF 393 renal): > 50 µM
TGI (SF-268 CNS): > 50 µM
TGI (SF-295 CNS): 28.6 µM
TGI (SK-MEL-2 melanoma): > 50 µM
TGI (SK-MEL-28 melanoma): > 50 µM
TGI (SK-MEL-5 melanoma): > 50 µM
TGI (SK-OV-3 ovarian): 41.2 µM
TGI (SN12C renal): > 50 µM
TGI (SNB-19 CNS): > 50 µM
TGI (SNB-75 CNS): 23.9 µM
TGI (SW-620 colon): > 50 µM
TGI (TK-10 renal): 35.9 µM
TGI (U251 CNS): 22 µM
TGI (UACC-257 melanoma): > 50 µM
TGI (UACC-62 melanoma): > 50 µM
TGI (UO-31 renal): > 50 µM

CC(C)(C)c1ccc2c(c1)C#Cc1cc(C(C)(C)C)ccc1OCCCO2
TGI (786-0 renal): > 100 µM
TGI (A498 renal): > 100 µM
TGI (A549 NSCLC): > 100 µM
TGI (ACHN renal): > 100 µM
TGI (BT-549 breast): > 100 µM
TGI (CAKI-1 renal): > 100 µM
TGI (CCRF-CEM leukemia): > 100 µM
TGI (COLO 205 colon): > 100 µM
TGI (DU-145 prostate): > 100 µM
TGI (EKVX NSCLC): > 100 µM
TGI (HCT-116 colon): > 100 µM
TGI (HCT-15 colon): > 100 µM
TGI (HL-60(TB) leukemia): > 100 µM
TGI (HOP-62 NSCLC): > 100 µM
TGI (HS 578T breast): > 100 µM
TGI (HT29 colon): > 100 µM
TGI (IGROV1 ovarian): > 100 µM
TGI (K-562 leukemia): > 100 µM
TGI (KM12 colon): > 100 µM
TGI (LOX IMVI melanoma): > 100 µM
TGI (M14 melanoma): > 100 µM
TGI (MALME-3M melanoma): > 100 µM
TGI (MCF7 breast): > 100 µM
TGI (MDA-MB-231 breast): > 100 µM
TGI (MDA-MB-435): > 100 µM
TGI (MDA-N): > 100 µM
TGI (MOLT-4 leukemia): > 100 µM
TGI (NCI-H226 lung): > 100 µM
TGI (NCI-H23 lung): > 100 µM
TGI (NCI-H460 lung): > 100 µM
TGI (NCI-H522 lung): > 100 µM
TGI (NCI/ADR-RES ovarian): > 100 µM
TGI (OVCAR-3 ovarian): > 100 µM
TGI (OVCAR-4 ovarian): > 100 µM
TGI (OVCAR-5 ovarian): > 100 µM
TGI (OVCAR-8 ovarian): > 100 µM
TGI (PC-3 prostate): > 100 µM
TGI (RPMI-8226 leukemia): > 100 µM
TGI (RXF 393 renal): > 100 µM
TGI (SF-268 CNS): > 100 µM
TGI (SF-295 CNS): > 100 µM
TGI (SK-MEL-2 melanoma): > 100 µM
TGI (SK-MEL-28 melanoma): > 100 µM
TGI (SK-MEL-5 melanoma): > 100 µM
TGI (SN12C renal): > 100 µM
TGI (SNB-19 CNS): > 100 µM
TGI (SW-620 colon): > 100 µM
TGI (T-47D breast): > 100 µM
TGI (TK-10 renal): > 100 µM
TGI (U251 CNS): > 100 µM
TGI (UACC-257 melanoma): > 100 µM
TGI (UACC-62 melanoma): > 100 µM
TGI (UO-31 renal): > 100 µM

O=C(NCCC1CN(C(=O)OCc2ccccc2)c2ccccc21)OCc1ccccc1 (configuration not stated)
TGI (786-0 renal): > 100 µM
TGI (A498 renal): > 100 µM
TGI (A549 NSCLC): > 100 µM
TGI (ACHN renal): > 100 µM
TGI (BT-549 breast): > 100 µM
TGI (CAKI-1 renal): > 100 µM
TGI (COLO 205 colon): > 100 µM
TGI (DU-145 prostate): > 100 µM
TGI (EKVX NSCLC): > 100 µM
TGI (HCC-2998 colon): > 100 µM
TGI (HCT-116 colon): > 100 µM
TGI (HCT-15 colon): > 100 µM
TGI (HOP-62 NSCLC): > 100 µM
TGI (HOP-92 NSCLC): > 100 µM
TGI (HS 578T breast): > 100 µM
TGI (HT29 colon): > 100 µM
TGI (IGROV1 ovarian): > 100 µM
TGI (K-562 leukemia): > 100 µM
TGI (KM12 colon): > 100 µM
TGI (M14 melanoma): > 100 µM
TGI (MALME-3M melanoma): > 100 µM
TGI (MCF7 breast): > 100 µM
TGI (MDA-MB-231 breast): > 100 µM
TGI (MDA-MB-435): > 100 µM
TGI (MDA-N): > 100 µM
TGI (MOLT-4 leukemia): > 100 µM
TGI (NCI-H23 lung): > 100 µM
TGI (NCI-H460 lung): > 100 µM
TGI (NCI-H522 lung): > 100 µM
TGI (NCI/ADR-RES ovarian): > 100 µM
TGI (OVCAR-3 ovarian): > 100 µM
TGI (OVCAR-4 ovarian): > 100 µM
TGI (OVCAR-5 ovarian): > 100 µM
TGI (OVCAR-8 ovarian): > 100 µM
TGI (PC-3 prostate): > 100 µM
TGI (RPMI-8226 leukemia): > 100 µM
TGI (RXF 393 renal): > 100 µM
TGI (SF-268 CNS): > 100 µM
TGI (SF-295 CNS): > 100 µM
TGI (SK-MEL-2 melanoma): > 100 µM
TGI (SK-MEL-28 melanoma): > 100 µM
TGI (SK-MEL-5 melanoma): > 100 µM
TGI (SK-OV-3 ovarian): > 100 µM
TGI (SNB-19 CNS): > 100 µM
TGI (SNB-75 CNS): > 100 µM
TGI (SW-620 colon): > 100 µM
TGI (TK-10 renal): > 100 µM
TGI (U251 CNS): > 100 µM
TGI (UACC-257 melanoma): > 100 µM
TGI (UACC-62 melanoma): > 100 µM
TGI (UO-31 renal): > 100 µM

CCOC(=O)C1(C/C=C/CCl)CCCC1=O (configuration not stated)
TGI (786-0 renal): 49.4 µM
TGI (A498 renal): > 100 µM
TGI (A549 NSCLC): 49.4 µM
TGI (ACHN renal): 36.6 µM
TGI (BT-549 breast): 40.8 µM
TGI (CAKI-1 renal): 79.5 µM
TGI (CCRF-CEM leukemia): > 100 µM
TGI (COLO 205 colon): 72.9 µM
TGI (DU-145 prostate): > 100 µM
TGI (EKVX NSCLC): 37.9 µM
TGI (HCT-116 colon): 34.9 µM
TGI (HCT-15 colon): 40 µM
TGI (HL-60(TB) leukemia): > 100 µM
TGI (HOP-62 NSCLC): 45.1 µM
TGI (HS 578T breast): > 100 µM
TGI (HT29 colon): 68.4 µM
TGI (IGROV1 ovarian): 42 µM
TGI (KM12 colon): 41.2 µM
TGI (LOX IMVI melanoma): 30.4 µM
TGI (M14 melanoma): 38.5 µM
TGI (MALME-3M melanoma): 45.4 µM
TGI (MCF7 breast): 48.4 µM
TGI (MDA-MB-231 breast): 42.5 µM
TGI (MDA-MB-435): 44 µM
TGI (MDA-N): 35.1 µM
TGI (MOLT-4 leukemia): > 100 µM
TGI (NCI-H226 lung): 36.2 µM
TGI (NCI-H23 lung): 38.3 µM
TGI (NCI-H460 lung): > 100 µM
TGI (NCI-H522 lung): 47 µM
TGI (NCI/ADR-RES ovarian): 37.2 µM
TGI (OVCAR-4 ovarian): 93.7 µM
TGI (OVCAR-5 ovarian): 39.1 µM
TGI (OVCAR-8 ovarian): 38.2 µM
TGI (PC-3 prostate): > 100 µM
TGI (RXF 393 renal): 32.7 µM
TGI (SF-268 CNS): 68.1 µM
TGI (SF-295 CNS): > 100 µM
TGI (SF-539 CNS): 40.6 µM
TGI (SK-MEL-2 melanoma): 59 µM
TGI (SK-MEL-28 melanoma): 50.6 µM
TGI (SK-MEL-5 melanoma): 33.9 µM
TGI (SK-OV-3 ovarian): > 100 µM
TGI (SN12C renal): 59.1 µM
TGI (SNB-19 CNS): 61.2 µM
TGI (SNB-75 CNS): 61.8 µM
TGI (SW-620 colon): 42.1 µM
TGI (T-47D breast): 51.3 µM
TGI (TK-10 renal): 68.4 µM
TGI (U251 CNS): 86.7 µM
TGI (UACC-257 melanoma): > 100 µM
TGI (UACC-62 melanoma): 30.2 µM
TGI (UO-31 renal): 39.7 µM
